ChEMBL document CHEMBL4480391, “Discovery and synthesis of sulfur-containing 6-substituted 5,8-dimethoxy-1,4-naphthoquinone oxime derivatives as new and potential anti-MDR cancer agents” (Eur J Med Chem, 2019)

Experiments:
[1] = Selectivity ratio of IC50 for human A549 cells to IC50 for human A549/TAX cells; assay type: functional
HCT-15 = assay: Cytotoxicity against human HCT15 cells after 72 hrs by MTT assay; assay type: functional, cell-based; settings: HCT-15, 72 h
NCI/ADR-RES = assay: Cytotoxicity against human MCF7/ADR cells after 72 hrs by MTT assay; assay type: functional, cell-based
[2] = Selectivity ratio of IC50 for human MCF7 cells to IC50 for human MCF7/ADR cells; assay type: functional
Bel7402/5-FU = assay: Cytotoxicity against human Bel7402/5-FU cells after 72 hrs by MTT assay; assay type: functional, cell-based
K562 = assay: Cytotoxicity against human K562 cells after 72 hrs by MTT assay; assay type: functional, cell-based; settings: K562, 72 h
MGC-803 = assay: Cytotoxicity against human MGC803 cells after 72 hrs by MTT assay; assay type: functional, cell-based; settings: MGC-803, 72 h
MCF7 = assay: Cytotoxicity against human MCF7 cells after 72 hrs by MTT assay; assay type: functional, cell-based; settings: MCF7, 72 h
A549/TR = assay: Cytotoxicity against human A549/TAX cells after 72 hrs by MTT assay; assay type: functional, cell-based
[3] = Cytotoxicity against human HSF cells after 72 hrs by MTT assay; assay type: cell-based
[4] = Selectivity index, ratio of IC50 for human HSF cells to IC50 for human HCT15 cells; assay type: toxicity; settings: HSF cells versus HCT15 cells, read-out: Ratio IC50
A549 = assay: Cytotoxicity against human A549 cells after 72 hrs by MTT assay; assay type: functional, cell-based; settings: A549, 72 h
[5] = Selectivity ratio of IC50 for human […] cells to IC50 for human Bel7402/5-FU cells; assay type: functional
[6] = Cytotoxicity against human […] cells after 72 hrs by MTT assay; assay type: functional, cell-based

With CCCCCCCC(SC(=O)c1cc(OC)c(OC)c(OC)c1)c1cc(OC)c2c(c1OC)/C(=N/O)C=C/C2=N\O (stereo not drawn) the “Ratio IC50” value [1] was 7.96, the IC50 (HCT-15) was 0.98 µM and the IC50 (NCI/ADR-RES) was 7.88 µM. For the same compound, the “Ratio IC50” value [2] was 2.7, the IC50 (Bel7402/5-FU) was 1.56 µM and the IC50 (K562) was 0.85 µM. For the same compound, the IC50 (MGC-803) was 1.21 µM, the IC50 (MCF7) was 20.7 µM and the IC50 (A549/TR) was 2.25 µM. The IC50 [3] was greater than 50 µM, the selectivity ratio [4] was greater than 51 and the IC50 (A549) was 17.9 µM. For the same compound, the “Ratio IC50” value [5] was 1.9 and the IC50 [6] was 2.96 µM.

With CCCCCCCCC(SC(=O)c1ccc(C)cc1)c1cc(OC)c2c(c1OC)/C(=N/O)C=C/C2=N\O (stereo not drawn) the “Ratio IC50” value [1] was 7.62, the IC50 (HCT-15) was 0.53 µM and the IC50 (NCI/ADR-RES) was 3.98 µM. For the same compound, the “Ratio IC50” value [2] was 4.74, the IC50 (Bel7402/5-FU) was 0.76 µM and the IC50 (K562) was 0.97 µM. It also gave an IC50 (MGC-803) of 0.94 µM, an IC50 (MCF7) of 18.9 µM and an IC50 (A549/TR) of 1.82 µM. It also gave an IC50 [3] greater than 50 µM, a selectivity ratio [4] greater than 94.3 and an IC50 (A549) of 13.9 µM. The “Ratio IC50” value [5] was 1.22 and the IC50 [6] was 0.93 µM.

In the case of CCCCCCCC(SCCC(C)C)c1cc(OC)c2c(c1OC)/C(=N/O)C=C/C2=N\O (stereo not drawn), the “Ratio IC50” value [1] is reported as 5.38, the IC50 (HCT-15) is reported as 0.82 µM and the IC50 (NCI/ADR-RES) is reported as 18.5 µM. For the same compound, the “Ratio IC50” value [2] was 2.09, the IC50 (Bel7402/5-FU) was 2.92 µM and the IC50 (K562) was 1 µM. It also gave an IC50 (MGC-803) of 1.35 µM, an IC50 (MCF7) of 38.6 µM and an IC50 (A549/TR) of 4.52 µM. The IC50 [3] was greater than 50 µM, the selectivity ratio [4] was greater than 61 and the IC50 (A549) was 24.3 µM. For the same compound, the “Ratio IC50” value [5] was 1.53 and the IC50 [6] was 4.47 µM.

In the case of CCCCCCCCC(SC(=O)c1cc(OC)c(OC)c(OC)c1)c1cc(OC)c2c(c1OC)/C(=N/O)C=C/C2=N\O (stereo not drawn), the “Ratio IC50” value [1] is reported as 11.5, the IC50 (HCT-15) is reported as 0.5 µM and the IC50 (NCI/ADR-RES) is reported as 2.47 µM. For the same compound, the “Ratio IC50” value [2] was 6.01, the IC50 (Bel7402/5-FU) was 0.31 µM and the IC50 (K562) was 0.68 µM. It also gave an IC50 (MGC-803) of 0.91 µM, an IC50 (MCF7) of 14.8 µM and an IC50 (A549/TR) of 0.81 µM. The IC50 [3] was greater than 50 µM, the selectivity ratio [4] was greater than 100 and the IC50 (A549) was 9.28 µM. For the same compound, the “Ratio IC50” value [5] was 1.81 and the IC50 [6] was 0.56 µM.

For CCCCCCCCC(SC(=O)c1ccc(OC)c(OC)c1)c1cc(OC)c2c(c1OC)/C(=N/O)C=C/C2=N\O (stereo not drawn), the “Ratio IC50” value [1] was 10.9, the IC50 (HCT-15) was 0.46 µM and the IC50 (NCI/ADR-RES) was 2.63 µM. For the same compound, the “Ratio IC50” value [2] was 4.97, the IC50 (Bel7402/5-FU) was 0.57 µM and the IC50 (K562) was 0.75 µM. The IC50 (MGC-803) was 0.95 µM, the IC50 (MCF7) was 13.1 µM and the IC50 (A549/TR) was 0.96 µM. For the same compound, the IC50 [3] was greater than 50 µM, the selectivity ratio [4] was greater than 109 and the IC50 (A549) was 10.5 µM. The “Ratio IC50” value [5] was 1.3 and the IC50 [6] was 0.74 µM.

In the case of CCCCCCCCC(SCCC(C)C)c1cc(OC)c2c(c1OC)/C(=N/O)C=C/C2=N\O (stereo not drawn), the “Ratio IC50” value [1] is reported as 16, the IC50 (HCT-15) is reported as 0.54 µM and the IC50 (NCI/ADR-RES) is reported as 14 µM. For the same compound, the “Ratio IC50” value [2] was 2.41, the IC50 (Bel7402/5-FU) was 0.73 µM and the IC50 (K562) was 0.76 µM. For the same compound, the IC50 (MGC-803) was 1.09 µM, the IC50 (MCF7) was 33.6 µM and the IC50 (A549/TR) was 1.18 µM. It also gave an IC50 [3] greater than 50 µM, a selectivity ratio [4] greater than 92.6 and an IC50 (A549) of 18.9 µM. For the same compound, the “Ratio IC50” value [5] was 3.16 and the IC50 [6] was 2.31 µM.

With CCCCCCCCCC(SC(=O)c1cc(OC)c(OC)c(OC)c1)c1cc(OC)c2c(c1OC)/C(=N/O)C=C/C2=N\O (stereo not drawn) the “Ratio IC50” value [1] was 15.9, the IC50 (HCT-15) was 0.82 µM and the IC50 (NCI/ADR-RES) was 5.48 µM. For the same compound, the “Ratio IC50” value [2] was 3.51, the IC50 (Bel7402/5-FU) was 1.12 µM and the IC50 (K562) was 0.79 µM. It also gave an IC50 (MGC-803) of 1.25 µM, an IC50 (MCF7) of 19.3 µM and an IC50 (A549/TR) of 1.01 µM. For the same compound, the IC50 [3] was greater than 50 µM, the selectivity ratio [4] was greater than 61 and the IC50 (A549) was 16.1 µM. For the same compound, the “Ratio IC50” value [5] was 1.2 and the IC50 [6] was 1.34 µM.
